How the values were obtained:
PI3Kalpha = PI3Kalpha (Homo sapiens (Human), UniProt P42336); experiment: HTRF PI3K biochemical assay, alpha isoform (selectivity versus delta); conditions: ratio PI3K-alpha IC50 value/PI3K-delta IC50 value
Procedure: (§1) HTRF PI3K Biochemical Assay to Measure Intrinsic Potency of Compound Inhibitors
(§2) This loss of signal is nonlinear with respect to both increasing product and time. This non-linear detection will impact accuracy of IC50 calculations; therefore, there is a need for a correction factor to obtain more accurate IC50 values. This correction is derived from a PIP3 standard curve run in a separate assay plate. All data were calculated using the ratio of acceptor (APC) to donor (Europium) fluorescence in each well of the assay plate. […] An IC50 was then calculated fitting the % inhibition data to the equation: % inhibition=min+(Max−min)/1+([inhibitor]/IC50)^n) where min is the % inhibition with inhibitor, max is the signal in DMSO control, and n is the Hill slope.
(§3) The biological data was collected using the methodology described above.
The determination of relative selectivity for a given compound is defined as the relative ratio of the (PI3K-alphaIC50 value/PI3K-delta IC50 value).

PI3Kdelta = PI3Kdelta (Homo sapiens (Human), UniProt O00329); experiment: HTRF PI3K biochemical assay, delta isoform; conditions: 0.3 nM enzyme, 100 uM ATP, 50 uM PIP2; form screened (neutral or TFA salt)
Sequence of PI3Kdelta (O00329 whole entry, canonical isoform): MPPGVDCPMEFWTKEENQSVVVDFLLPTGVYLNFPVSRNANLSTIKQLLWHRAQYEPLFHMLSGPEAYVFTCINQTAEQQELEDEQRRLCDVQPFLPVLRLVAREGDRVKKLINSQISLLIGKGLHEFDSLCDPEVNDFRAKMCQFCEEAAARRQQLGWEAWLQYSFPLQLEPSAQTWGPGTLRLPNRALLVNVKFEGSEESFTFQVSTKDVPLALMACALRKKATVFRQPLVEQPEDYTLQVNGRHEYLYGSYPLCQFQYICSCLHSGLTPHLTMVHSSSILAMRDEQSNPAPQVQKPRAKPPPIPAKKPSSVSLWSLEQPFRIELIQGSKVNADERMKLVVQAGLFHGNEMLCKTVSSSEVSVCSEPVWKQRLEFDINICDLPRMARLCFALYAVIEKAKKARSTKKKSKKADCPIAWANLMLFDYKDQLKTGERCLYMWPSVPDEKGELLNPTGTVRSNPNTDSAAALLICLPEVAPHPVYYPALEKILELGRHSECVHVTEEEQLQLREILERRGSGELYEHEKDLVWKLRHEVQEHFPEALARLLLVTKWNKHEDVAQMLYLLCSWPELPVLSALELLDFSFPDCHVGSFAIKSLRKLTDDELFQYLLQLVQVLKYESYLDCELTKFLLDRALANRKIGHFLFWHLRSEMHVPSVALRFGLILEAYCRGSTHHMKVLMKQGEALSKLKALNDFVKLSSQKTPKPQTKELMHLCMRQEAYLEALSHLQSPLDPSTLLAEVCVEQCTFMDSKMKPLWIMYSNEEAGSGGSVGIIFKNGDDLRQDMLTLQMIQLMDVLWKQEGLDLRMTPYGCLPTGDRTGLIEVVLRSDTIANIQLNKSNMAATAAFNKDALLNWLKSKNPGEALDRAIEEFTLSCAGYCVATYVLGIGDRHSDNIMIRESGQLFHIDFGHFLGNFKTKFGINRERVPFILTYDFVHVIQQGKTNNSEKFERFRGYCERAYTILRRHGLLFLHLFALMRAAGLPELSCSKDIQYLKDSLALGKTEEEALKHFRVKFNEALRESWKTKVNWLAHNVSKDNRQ
Sequence of PI3Kdelta (P27986 whole entry partner, canonical isoform): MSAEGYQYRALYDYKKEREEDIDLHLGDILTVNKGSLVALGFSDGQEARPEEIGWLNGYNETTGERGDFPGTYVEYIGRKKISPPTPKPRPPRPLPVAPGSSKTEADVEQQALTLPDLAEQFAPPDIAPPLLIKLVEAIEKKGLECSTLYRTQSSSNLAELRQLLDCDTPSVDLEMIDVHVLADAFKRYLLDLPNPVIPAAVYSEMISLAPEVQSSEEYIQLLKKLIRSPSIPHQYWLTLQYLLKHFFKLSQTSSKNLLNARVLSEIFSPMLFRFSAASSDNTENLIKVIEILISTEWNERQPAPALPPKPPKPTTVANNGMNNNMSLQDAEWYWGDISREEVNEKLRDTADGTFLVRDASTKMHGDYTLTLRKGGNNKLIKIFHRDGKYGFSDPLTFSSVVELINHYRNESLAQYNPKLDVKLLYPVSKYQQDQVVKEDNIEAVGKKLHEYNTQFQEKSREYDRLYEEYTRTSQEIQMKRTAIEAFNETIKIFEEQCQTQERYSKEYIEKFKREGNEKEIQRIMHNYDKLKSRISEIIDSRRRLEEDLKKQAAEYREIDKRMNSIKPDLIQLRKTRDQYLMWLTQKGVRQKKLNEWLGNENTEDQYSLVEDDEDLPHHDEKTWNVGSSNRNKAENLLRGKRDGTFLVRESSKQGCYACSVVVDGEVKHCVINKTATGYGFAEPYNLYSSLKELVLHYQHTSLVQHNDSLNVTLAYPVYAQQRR
Procedure: as §1, §2, §3

Sequence of PI3Kalpha (P42336 whole entry, canonical isoform): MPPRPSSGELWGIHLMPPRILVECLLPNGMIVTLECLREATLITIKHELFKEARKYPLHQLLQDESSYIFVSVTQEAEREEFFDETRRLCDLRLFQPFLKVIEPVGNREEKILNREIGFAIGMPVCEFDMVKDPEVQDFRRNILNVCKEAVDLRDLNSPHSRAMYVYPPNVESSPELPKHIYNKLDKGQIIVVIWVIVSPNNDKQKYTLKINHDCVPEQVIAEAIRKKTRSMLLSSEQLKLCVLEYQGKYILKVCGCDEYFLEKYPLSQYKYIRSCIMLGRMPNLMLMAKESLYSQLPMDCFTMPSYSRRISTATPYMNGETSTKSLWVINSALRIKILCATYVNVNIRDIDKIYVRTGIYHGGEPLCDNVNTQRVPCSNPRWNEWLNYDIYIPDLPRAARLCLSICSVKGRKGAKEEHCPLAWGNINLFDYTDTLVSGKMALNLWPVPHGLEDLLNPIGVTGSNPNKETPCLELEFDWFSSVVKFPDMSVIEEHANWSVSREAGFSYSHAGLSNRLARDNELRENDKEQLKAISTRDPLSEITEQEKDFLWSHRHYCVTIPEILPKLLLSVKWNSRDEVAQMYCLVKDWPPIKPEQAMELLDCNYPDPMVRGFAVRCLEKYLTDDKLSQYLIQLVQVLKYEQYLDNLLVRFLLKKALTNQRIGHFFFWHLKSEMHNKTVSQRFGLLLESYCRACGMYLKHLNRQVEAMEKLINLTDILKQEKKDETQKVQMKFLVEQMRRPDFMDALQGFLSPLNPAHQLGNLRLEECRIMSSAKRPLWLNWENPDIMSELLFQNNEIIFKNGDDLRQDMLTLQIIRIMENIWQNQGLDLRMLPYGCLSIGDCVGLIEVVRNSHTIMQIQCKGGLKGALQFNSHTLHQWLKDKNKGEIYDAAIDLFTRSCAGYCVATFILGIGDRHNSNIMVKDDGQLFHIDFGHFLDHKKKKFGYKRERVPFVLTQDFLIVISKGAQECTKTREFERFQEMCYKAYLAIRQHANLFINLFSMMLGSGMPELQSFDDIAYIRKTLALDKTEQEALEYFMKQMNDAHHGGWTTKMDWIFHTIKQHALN
Sequence of PI3Kalpha (P27986 whole entry partner, canonical isoform): as the sequence (P27986 whole entry partner, canonical isoform) above

Row | SMILES | Relative Selectivity versus PI3Kalpha (PI3Kalpha) | IC50 (PI3Kdelta) [nM]
1 | CCn1c(-c2cnc(C)nc2)nc2c(-c3ccc4c(c3)C(C)(Cc3ccccc3)C(=O)N4C)ncnc21 (single isomer, unassigned) [Compound 1-20, 3-Benzyl-5-(9-ethyl-8-(2-methylpyrimidin-5-yl)-9H-purin-6-yl)-1,3-dimethylindolin-2-one] | 3 | 477
2 | CCn1c(-c2cnc(C)nc2)nc2c(-c3ccc4c(c3)C(C)(Cc3ccccc3)C(=O)N4C)ncnc21 (single isomer, unassigned) [Compound 1-21, 3-Benzyl-5-(9-ethyl-8-(2-methylpyrimidin-5-yl)-9H-purin-6-yl)-1,3-dimethylindolin-2-one] | >10 | 4
3 | CCn1c(C(F)F)nc2c(-c3ccc4c(c3)C(C)(Cc3ccccc3)C(=O)N4)ncnc21 (single isomer, unassigned) [Compound 1-23, (R or S)-benzyl-5-(8-(difluoromethyl)-9-ethyl-9H-purin-6-yl)-3-methylindolin-2-one] | >10 | 27
4 | CCn1c(C(F)F)nc2c(-c3ccc4c(c3)C(C)(Cc3ccccc3)C(=O)N4)ncnc21 (single isomer, unassigned) [Compound 1-24, (R or S)-benzyl-5-(8-(difluoromethyl)-9-ethyl-9H-purin-6-yl)-3-methylindolin-2-one] | >10 | 658
5 | CCn1ncc(-c2nc3c(-c4ccc5c(c4)C(C)(CC4CC4)C(=O)N5)ncnc3n2CC)c1C (single isomer, unassigned) [Compound 1-25, 3-(Cyclopropylmethyl)-5-(9-ethyl-8-(1-ethyl-5-methyl-1H-pyrazol-4-yl)-9H-purin-6-yl)-3-methylindolin-2-one] | >10 | 4
6 | Cc1ncc(-c2nc3c(-c4cnc5c(c4)C(C)(CC(C)C)C(=O)N5)ncnc3n2C)cn1 (single isomer, unassigned) [Compound 1-26, (R or S)-3-isobutyl-3-methyl-5-(9-methyl-8-(2-methylpyrimidin-5-yl)-9H-purin-6-yl)-1,3-dihydro-2H-pyrrolo[2,3-b]pyridin-2-one] | >10 | 50
7 | Cc1ncc(-c2nc3c(-c4cnc5c(c4)C(C)(CC(C)C)C(=O)N5)ncnc3n2C)cn1 (single isomer, unassigned) [Compound 1-27, (R or S)-3-isobutyl-3-methyl-5-(9-methyl-8-(2-methylpyrimidin-5-yl)-9H-purin-6-yl)-1,3-dihydro-2H-pyrrolo[2,3-b]pyridin-2-one] | >10 | 5
8 | CCn1c(-c2cnc(C)nc2)nc2c(-c3ccc4c(c3)C(C)(C3CCOCC3)C(=O)N4)ncnc21 (single isomer, unassigned) [Compound 1-34, 5-(9-Ethyl-8-(2-methylpyrimidin-5-yl)-9H-purin-6-yl)-3-methyl-3-(tetrahydro-2H-pyran-4-yl)indolin-2-one] | 8 | 48
9 | CCn1c(-c2cnc(C)nc2)nc2c(-c3ccc4c(c3)C(C)(C3CCOCC3)C(=O)N4)ncnc21 (single isomer, unassigned) [Compound 1-35, 5-(9-Ethyl-8-(2-methylpyrimidin-5-yl)-9H-purin-6-yl)-3-methyl-3-(tetrahydro-2H-pyran-4-yl)indolin-2-one] | >10 | 5
10 | CCn1c(-c2cnc(C)nc2)nc2c(-c3ccc4c(c3)C(C)(CC)C(=O)N4)ncnc21 (single isomer, unassigned) [Compound 1-38, (R or S)-3-ethyl-5-(9-ethyl-8-(2-methylpyrimidin-5-yl)-9H-purin-6-yl)-3-methylindolin-2-one] | >10 | 80
11 | CCn1c(-c2cnc(C)nc2)nc2c(-c3ccc4c(c3)C(C)(CC)C(=O)N4)ncnc21 (single isomer, unassigned) [Compound 1-39, (R or S)-3-ethyl-5-(9-ethyl-8-(2-methylpyrimidin-5-yl)-9H-purin-6-yl)-3-methylindolin-2-one] | >10 | 85
12 | CCn1c(-c2cnc(C)nc2)nc2c(-c3ccc4c(c3)C(C)(CC(C)(C)O)C(=O)N4)ncnc21 (single isomer, unassigned) [Compound 1-40, 5-(9-Ethyl-8-(2-methylpyrimidin-5-yl)-9H-purin-6-yl)-3-(2-hydroxy-2-methylpropyl)-3-methylindolin-2-one] | >10 | 142
13 | CCn1c(-c2cnc(C)nc2)nc2c(-c3ccc4c(c3)C(C)(CC(C)(C)O)C(=O)N4)ncnc21 (single isomer, unassigned) [Compound 1-41, 5-(9-Ethyl-8-(2-methylpyrimidin-5-yl)-9H-purin-6-yl)-3-(2-hydroxy-2-methylpropyl)-3-methylindolin-2-one] | >10 | 23
14 | CCn1c(-c2cnc(C)nc2)nc2c(-c3ccc4c(c3)C(C)(N3C[C@@H](C)O[C@@H](C)C3)C(=O)N4)ncnc21 (single isomer, unassigned) [Compound 2-3, (R or S)-3-[(cis)-2,6-dimethylmorpholin-4-yl]-5-[9-ethyl-8-(2-methylpyrimidin-5-yl)-9H-purin-6-yl]-3-methyl-1,3-dihydro-2H-indol-2-one] | 4 | 145
15 | CCn1c(-c2cnc(C)nc2)nc2c(-c3ccc4c(c3)C(C)(N3C[C@@H](C)O[C@@H](C)C3)C(=O)N4)ncnc21 (single isomer, unassigned) [Compound 2-4, (R or S)-3-[(cis)-2,6-dimethylmorpholin-4-yl]-5-[9-ethyl-8-(2-methylpyrimidin-5-yl)-9H-purin-6-yl]-3-methyl-1,3-dihydro-2H-indol-2-one] | >10 | 5

Second part, the molecule after the results:

Row | Relative Selectivity versus PI3Kalpha (PI3Kalpha) | IC50 (PI3Kdelta) [nM] | SMILES
16 | >10 | 73 | CCn1c(-c2cnc(C)nc2)nc2c(-c3ccc4c(c3)C(C)(N3CC(C)(C#N)C3)C(=O)N4)ncnc21 (single isomer, unassigned) [Compound 2-5, (R or S)-1-{5-[9-ethyl-8-(2-methylpyrimidin-5-yl)-9H-purin-6-yl]-3-methyl-2-oxo-2,3-dihydro-1H-indol-3-yl}-3-methylazetidine-3-carbonitrile]
17 | >10 | 3 | CCn1c(-c2cnc(C)nc2)nc2c(-c3ccc4c(c3)C(C)(N3CC(C)(C#N)C3)C(=O)N4)ncnc21 (single isomer, unassigned) [Compound 2-6, (R or S)-1-{5-[9-ethyl-8-(2-methylpyrimidin-5-yl)-9H-purin-6-yl]-3-methyl-2-oxo-2,3-dihydro-1H-indol-3-yl}-3-methylazetidine-3-carbonitrile]
18 | >10 | 8 | CCn1c(-c2cnc(C)nc2)nc2c(-c3ccc4c(c3)C(C)(N3CC5(CCO5)C3)C(=O)N4)ncnc21 (single isomer, unassigned) [Compound 2-7, (R or S)-5-[9-ethyl-8-(2-methylpyrimidin-5-yl)-9H-purin-6-yl]-3-methyl-3-(1-oxa-6-azaspiro[3.3]hept-6-yl)-1,3-dihydro-2H-indol-2-one]
19 | >10 | 129 | CCn1c(-c2cnc(C)nc2)nc2c(-c3ccc4c(c3)C(C)(N3CC5(CCO5)C3)C(=O)N4)ncnc21 (single isomer, unassigned) [Compound 2-8, (R or S)-5-[9-ethyl-8-(2-methylpyrimidin-5-yl)-9H-purin-6-yl]-3-methyl-3-(1-oxa-6-azaspiro[3.3]hept-6-yl)-1,3-dihydro-2H-indol-2-one]
20 | >10 | 5 | CCn1c(-c2cnc(C)nc2)nc2c(-c3ccc4c(c3)C(C)(N[C@@H](C)C3CC3)C(=O)N4)ncnc21 (single isomer, unassigned) [Compound 2-12, 3-{[(1S)-1-cyclopropylethyl]amino}-5-[9-ethyl-8-(2-methylpyrimidin-5-yl)-9H-purin-6-yl]-3(R or S)-methyl-1,3-dihydro-2H-indol-2-one]
21 | >10 | 32 | CCn1c(-c2cnc(C)nc2)nc2c(-c3ccc4c(c3)C(C)(N[C@@H](C)C3CC3)C(=O)N4)ncnc21 (single isomer, unassigned) [Compound 2-13, 3-{[(1S)-1-cyclopropylethyl]amino}-5-[9-ethyl-8-(2-methylpyrimidin-5-yl)-9H-purin-6-yl]-3(R or S)-methyl-1,3-dihydro-2H-indol-2-one]
22 | >10 | 479 | CCn1c(-c2cnc(C)nc2)nc2c(-c3ccc4c(c3)C(C)(NC(C)C)C(=O)N4)ncnc21 (single isomer, unassigned) [Compound 2-31, (R or S)-5-[9-ethyl-8-(2-methylpyrimidin-5-yl)-9H-purin-6-yl]-3-methyl-3-[(1-methylethyl)amino]-1,3-dihydro-2H-indol-2-one]
23 | >10 | 27 | CCn1c(-c2cnc(C)nc2)nc2c(-c3ccc4c(c3)C(C)(NC(C)C)C(=O)N4)ncnc21 (single isomer, unassigned) [Compound 2-32, (R or S)-5-[9-ethyl-8-(2-methylpyrimidin-5-yl)-9H-purin-6-yl]-3-methyl-3-[(1-methylethyl)amino]-1,3-dihydro-2H-indol-2-one]

— patent publication US10544147B2, “Purine inhibitors of human phosphatidylinositol 3-kinase delta” (MERCK SHARP & DOHME CORP., priority 2016, dated 2020)
